This is an account of results in US20050282781A1, “Compositions of stable bioactive metabolites of docosahexaenoic (DHA) and eicosapentaenoic (EPA) acids” (priority 2004, published 2005).

For assay [1], the system named is CS-induced gastric ulceration in albino rats. In words: Chronic stress (foot-shock) induced gastric ulceration. Type of assay: in vivo. The procedure:
A comparative study of DBPs (1, 2, Scheme-II; 1:1 mixture), EPA and DHA was carried out to determine their relative adaptogenic potency against chronic stress in albino rats. The study is also relevant in view of the projected links of EPA and DHA to mental development in children which is severely retarded by chronic stress.
Rats were randomly assigned to control or stress groups. Those assigned to the stress groups were subjected to 1 hour foot-shock, through a grid floor, every day for 14 days. The duration of each shock (2 mA) and the intervals between the shocks were randomly programmed between 3-5 seconds and 10-110 seconds, respectively, to make the stress unpredictable.
EPA (Aldrich), DHA (Sigma) and DBPs were separately suspended/dissolved in 0.3% carboxymethylcellulose (CMC) in distilled water and administered orally (p.o.) for 14 days, starting on day 1, 60 min. prior to electro-shock. Control animals received only the vehicle in either unstressed or the stressed rats for the same period in a volume of 2 ml/Kg, p.o. Estimations were conducted on day 14, one hour after the last stress procedure and two hours after the last test compound or vehicle was administered.
The three test compounds had, albeit in different extent, dose-related anti-ulcerogenic effect. The efficacy was in the order: DBPs>DHA>EPA (Table 2).

For assay [2], the system named is pylorus ligated albino rats. In words: Anti-ulcerogenic effect in pylorus ligated rats (ulcer index, gastric juice). Type of assay: in vivo. The settings on record: 10 mg/ml. The text has this:
Mixture of DBPs (1:1, 1 and 2, Scheme-II), on'the other hand, increased the contents of individual and the total carbohydrates and also the total carbohydrate/protein ratio in the gastric juice. The ratio of the total carbohydrate/protein was taken as the index of the mucin activity.
Another essential criterion of determining the status of mucosal resistance/barrier is the state of mucus secretion. DBPs increase not only the mucosal cellular mucus, but also secrete more dissolved mucus in the gastric juice as evidenced by their effects on gastric juice carbohydrates and on the increased carbohydrate/protein ratio.

The mark [3] stands for this setting: 5 mg/Kg p.o. for 14 days + chronic stress.
Where [4] appears, read: 10 mg/Kg p.o. for 14 days + chronic stress.

Regarding `CC/C=C\C/C=C\C/C=C\C/C=C\C/C=C\CCCC(=O)O` [EPA, cis-5,8,11,14,17-Eicosapentaenoic acid], in assay [1] (setting [3]), the No. of ulcers amounted to 16.5 ± 3.4, the Severity of ulcers turned out to be 28.3 ± 7.7 and the “Ulcer incidence (%)” value amounted to 70%. In addition, in assay [1] (setting [4]), the No. of ulcers stood at 14.3 ± 4.4, the Severity of ulcers was found to be 26.4 ± 6.2 and the “Ulcer incidence (%)” value is listed as 60%. Besides, the anti-ulcerogenic effect entry in assay [2] is on record as “only weak anti-ulcerogenic effects”.
